Measured values reported in patent US11052065B2, “Compositions and methods for treating cancer with a combination of programmed death receptor (PD-1) antibodies and a CXCR2 antagonist” (Merck Sharp & Dohme Corp., priority 2017, dated 2021).

Tested on: B16-F10 melanoma tumor
Experiment: Anti-tumor efficacy in mouse B16-F10 melanoma syngeneic tumor model
Format: in vivo, C57Bl/6 mice
Settings: single agent treatment groups (navarixin 300 mg/kg bid + isotype control; anti-PD-1 10 mg/kg + vehicle); 12 mice per group; FIGS. 3 and 4
Description: The combination anti-tumor efficacy of a CXCR2 antagonist and anti-mouse PD-1 antibody muDX400 was assessed in the B16-F10 melanoma tumor model, syngeneic to the C57Bl/6 strain. This experiment compared the anti-tumor response of tumor-bearing mice to treatment with one of three regimens: monotherapy with a murine anti-mouse PD-1 monoclonal antibody (Anti-PD-1), monotherapy with a CXCR2 antagonist (navarixin) and combination therapy with these two agents administered concurrently.
Tumor-bearing mice for this study were initiated by implanting 0.4×10^6 log-phase and sub-confluent B16-F10 cells on the right lower dorsal flank of 7-8 week old female C57Bl/6 mice with an average body weight of 18 grams. When the mean tumor volume in these mice reached ˜70 cubic mm (50 mm^3-80 mm^3), the tumor-bearing mice were randomized to 5 treatment groups of 12 mice per group:
(1) Isotype Control+Vehicle;
(2) Isotype Control+Navarixin (bid);
(4) Anti-PD-1+Navarixin (bid) and;
(5) Anti-PD-1+Navarixin (qd).
The monoclonal antibody against murine PD-1 was of the isotype IgG1. The isotype control was a mouse monoclonal antibody specific for adenoviral hexon 25 and was of the isotype IgG1. […] The tumor volume was assessed using Vernier calipers.

CC[C@@H](Nc1c(Nc2cccc(C(=O)N(C)C)c2O)c(=O)c1=O)c1ccc(C)o1 [navarixin, 2-hydroxy-N,N-dimethyl-3-{2-[[(R)-1-(5-methylfuran-2-yl)propyl]amino]-3,4-dioxocyclobut-1-enylamino}benzamide]
complete and partial regressions: not observed
